Patent US10508085B2, “Compounds and methods for IDO and TDO modulation, and indications therefor” (Plexxikon Inc., priority 2016, dated 2019)

What was measured:
[1] = target: T1, human IDO (IDO1-expressing HEK293 cells) (Homo sapiens, UniProt P14902); assay: Cell based kynurenine assay, IDO1-expressing HEK293 cell clones; settings: IDO1-expressing HEK293 cells, 24 hours incubation; geometric mean; read-out: HEK293 IDO1 Kynurenine GMean IC50 (μM) (Cellular Assay)
T1 construct: expressed in transfected cells
T1 sequence (P14902 whole entry): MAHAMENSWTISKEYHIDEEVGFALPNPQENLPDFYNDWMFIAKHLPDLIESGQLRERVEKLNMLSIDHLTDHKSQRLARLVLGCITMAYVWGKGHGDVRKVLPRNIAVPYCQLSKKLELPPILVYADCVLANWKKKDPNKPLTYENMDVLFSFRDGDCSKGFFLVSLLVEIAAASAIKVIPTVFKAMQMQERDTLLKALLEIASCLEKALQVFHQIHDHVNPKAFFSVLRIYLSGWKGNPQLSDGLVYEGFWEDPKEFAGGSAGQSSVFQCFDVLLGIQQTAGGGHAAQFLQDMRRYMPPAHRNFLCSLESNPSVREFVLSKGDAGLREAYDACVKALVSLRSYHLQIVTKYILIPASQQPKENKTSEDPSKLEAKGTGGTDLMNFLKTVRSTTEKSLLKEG
Protocol: Determine Inhibitor Activity Against IDO or TDO in Cell Based Kynurenine Assay
IDO1-expressing or TDO-expressing HEK293 cell clones are generated upon stable transfection of plasmids expressing human IDO or human TDO under the control of CMV promoter. Cells are selected in DMEM media supplemented with 10% fetal bovine serum and 1 mg/ml G418 at 37° C. in a humidified incubator supplied with 5% CO2. The assays are performed as follows.
Cells were seeded in a 96 well plate in 50 μL of culture media at a density of 2.5×10^4 per well. Serial dilutions of compounds (in total volume of 50 μL culture media) are added into cells. 4 wells containing 0.2% DMSO treated cells serve as high controls and 4 wells containing media only with 0.2% DMSO serve as low controls. After 24 hours of incubation, the supernatant was transferred to a 384 well reaction plate and the kynurenine level determined. The percentage inhibition at individual concentrations relative to high and low controls is calculated. The data is analyzed by using nonlinear regression to generate IC50 values.

[2] = target: T2, Human Tryptophan 2,3-dioxygenase (TDO) (Homo sapiens, UniProt P48775); assay: Human TDO enzymatic assay (kynurenine level); format: biochemical; settings: 1 nM TDO, 350 μM L-Trp; geometric mean; read-out: TDO GMean: IC50 (μM) (Biochemical Assay)
T2 construct: His tag (N); made in house; host or cells: E. coli
T2 sequence (P48775 whole entry): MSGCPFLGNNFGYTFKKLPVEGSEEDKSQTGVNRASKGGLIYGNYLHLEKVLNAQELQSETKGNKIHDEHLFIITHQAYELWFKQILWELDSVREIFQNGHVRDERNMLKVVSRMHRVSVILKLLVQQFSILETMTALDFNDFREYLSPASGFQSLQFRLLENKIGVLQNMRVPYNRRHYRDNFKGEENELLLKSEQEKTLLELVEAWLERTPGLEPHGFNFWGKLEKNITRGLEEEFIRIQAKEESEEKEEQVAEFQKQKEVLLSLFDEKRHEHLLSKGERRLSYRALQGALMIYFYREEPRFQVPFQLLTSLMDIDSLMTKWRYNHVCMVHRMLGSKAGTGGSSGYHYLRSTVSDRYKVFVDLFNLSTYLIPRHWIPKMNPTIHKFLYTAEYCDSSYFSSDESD
Summary of the method: (§1)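 IDO conditions: 6 nM His-IDO, 10 μM L-Trp, 5 μM methylene blue, 20 min, RT. TDO conditions: 1 nM His-TDO, 350 μM L-Trp, 0.4 μM methylene blue, 70 min, RT. Both used pH 6.5 phosphate plus ascorbate/catalase, TCA stop at 50° C, kynurenine readout, nonlinear-regression IC50.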

[3] = target: T3, Human Indoleamine 2,3-dioxygenase (IDO) (Homo sapiens, UniProt P14902); assay: Human IDO enzymatic assay (kynurenine level); format: biochemical; settings: 6 nM IDO, 10 μM L-Trp; geometric mean; read-out: IDO1 GMean: IC50 (μM) (Biochemical Assay)
T3 construct: His tag (N); made in house; host or cells: E. coli
T3 sequence (P14902 whole entry): as the sequence (P14902 whole entry) above
Summary of the method: as §1

IC50 [1] [µM] | IC50 [2] [µM] | IC50 [3] [µM] | Compound
> 10 |  |  | CC(C)(C)OC(=O)N1CCC2(CC1)CC(O)(c1cc(Cl)cc3cn[nH]c13)C2 [Compound P-0019, tert-butyl 2-(5-chloro-1H-indazol-7-yl)-2-hydroxy-7-azaspiro[3.5]nonane-7-carboxylate]
> 10 |  |  | CS(=O)(=O)N1CCC(O)(c2cc(Cl)cc3cn[nH]c23)CC1 [Compound P-0023, 4-(5-chloro-1H-indazol-7-yl)-1-(methylsulfonyl)piperidin-4-ol]
> 10 |  |  | CS(=O)(=O)N1CC(O)(c2cc(Cl)cc3cn[nH]c23)C1 [Compound P-0024, 3-(5-chloro-1H-indazol-7-yl)-1-(methylsulfonyl)azetidin-3-ol]
 | 0.0001 to 10 | 0.0001 to 10 | CC(C)(C1CCN(C(=O)Nc2ccc(F)cn2)CC1)[C@H](O)c1cc(Cl)cc2cn[nH]c12 [Compound P-0658, (S)-4-(1-(5-chloro-1H-indazol-7-yl)-1-hydroxy-2-methylpropan-2-yl)-N-(5-fluoropyridin-2-yl)piperidine-1-carboxamide]
 | 0.0001 to 10 | 0.0001 to 10 | CC(C)(C1CCN(C(=O)C2(F)CC2)CC1)[C@H](O)c1cc(Cl)cc2cn[nH]c12 [Compound P-0659, (S)-(4-(1-(5-chloro-1H-indazol-7-yl)-1-hydroxy-2-methylpropan-2-yl)piperidin-1-yl)(1-fluorocyclopropyl) methanone]
 | 0.0001 to 10 | 0.0001 to 10 | CC(C)(C1CCN(C(=O)Nc2ccc(F)cc2)CC1)C(O)c1cc(Cl)cc2[nH]ncc12 (stereo not shown) [Compound P-0660, 4-(1-(6-chloro-1H-indazol-4-yl)-1-hydroxy-2-methylpropan-2-yl)-N-(4-fluorophenyl) piperidine-1-carboxamide]
 | 0.0001 to 10 | 0.0001 to 10 | CC(C)(C1CCN(C(=O)C2(F)CC2)CC1)C(O)c1cc(Cl)cc2[nH]ncc12 (stereo not shown) [Compound P-0661, (4-(1-(6-chloro-1H-indazol-4-yl)-1-hydroxy-2-methylpropan-2-yl)piperidin-1-yl)(1-fluorocyclopropyl) methanone]
 | 0.0001 to 10 | 0.0001 to 10 | CN(C)C(=O)N1CCC(C(C)(C)[C@H](O)c2cc(Cl)cc3cn[nH]c23)CC1 [Compound P-0662, (S)-4-(1-(5-chloro-1H-indazol-7-yl)-1-hydroxy-2-methylpropan-2-yl)-N,N-dimethylpiperidine-1-carboxamide]
 | 0.0001 to 10 | 0.0001 to 10 | CC(C)(C1CCN(C(=O)C(F)(F)F)CC1)[C@H](O)c1cc(Cl)cc2cn[nH]c12 [Compound P-0663, (S)-1-(4-(1-(5-chloro-1H-indazol-7-yl)-1-hydroxy-2-methylpropan-2-yl)piperidin-1-yl)-2,2,2-trifluoroethan-1-one]
 | 0.0001 to 10 | 0.0001 to 10 | CC(C)(C1CCN(C(=O)NCCCO)CC1)[C@H](O)c1cc(Cl)cc2cn[nH]c12 [Compound P-0665, (S)-4-(1-(5-chloro-1H-indazol-7-yl)-1-hydroxy-2-methylpropan-2-yl)-N-(3-hydroxypropyl) piperidine-1-carboxamide]
 | 0.0001 to 10 | 0.0001 to 10 | CC(C)(O)CNC(=O)N1CCC(C(C)(C)[C@H](O)c2cc(Cl)cc3cn[nH]c23)CC1 [Compound P-0666, (S)-4-(1-(5-chloro-1H-indazol-7-yl)-1-hydroxy-2-methylpropan-2-yl)-N-(2-hydroxy-methylpropyl) piperidine-1-carboxamide]
 | 0.0001 to 10 | 0.0001 to 10 | CC(C)(C1CCN(C(=O)NCC2(O)COC2)CC1)[C@H](O)c1cc(Cl)cc2cn[nH]c12 [Compound P-0667, (S)-4-(1-(5-chloro-1H-indazol-7-yl)-1-hydroxy-2-methylpropan-2-yl)-N-((3-hydroxyoxetan-3-yl)methyl)piperidine-1-carboxamide]
 | 0.0001 to 10 | 0.0001 to 10 | C[C@H](CO)NC(=O)N1CCC(C(C)(C)[C@H](O)c2cc(Cl)cc3cn[nH]c23)CC1 [Compound P-0668, 4-((S)-1-(5-chloro-1H-indazol-7-yl)-1-hydroxy-2-methylpropan-2-yl)-N-((R)-1-hydroxypropan-2-yl)piperidine-1-carboxamide]
 | 0.0001 to 10 | 0.0001 to 10 | C[C@@H](CO)NC(=O)N1CCC(C(C)(C)[C@H](O)c2cc(Cl)cc3cn[nH]c23)CC1 [Compound P-0669, 4-((S)-1-(5-chloro-1H-indazol-7-yl)-1-hydroxy-2-methylpropan-2-yl)-N-((S)-1-hydroxypropan-2-yl)piperidine-1-carboxamide]
 | 0.0001 to 10 | 0.0001 to 10 | C[C@@H](O)CNC(=O)N1CCC(C(C)(C)[C@H](O)c2cc(Cl)cc3cn[nH]c23)CC1 [Compound P-0670, 4-((S)-1-(5-chloro-1H-indazol-7-yl)-1-hydroxy-2-methylpropan-2-yl)-N-((R)-2-hydroxypropyl) piperidine-1-carboxamide]
 | 0.0001 to 10 | 0.0001 to 10 | C[C@H](O)CNC(=O)N1CCC(C(C)(C)[C@H](O)c2cc(Cl)cc3cn[nH]c23)CC1 [Compound P-0671, 4-((S)-1-(5-chloro-1H-indazol-7-yl)-1-hydroxy-2-methylpropan-2-yl)-N-((S)-2-hydroxypropyl) piperidine-1-carboxamide]
 | 0.0001 to 10 | 0.0001 to 10 | CC(C)(C1CCN(C(=O)NC2(C#N)CC2)CC1)[C@H](O)c1cc(Cl)cc2cn[nH]c12 [Compound P-0672, (S)-4-(1-(5-chloro-1H-indazol-7-yl)-1-hydroxy-2-methylpropan-2-yl)-N-(1-cyanocyclopropyl) piperidine-l-carboxamide]
 | 0.0001 to 10 | 0.0001 to 10 | CC(C)(C1CCN(C(=O)NCC(=O)O)CC1)[C@H](O)c1cc(Cl)cc2cn[nH]c12 [Compound P-0673, (S)-(4-(1-(5-chloro-1H-indazol-7-yl)-1-hydroxy-2-methylpropan-2-yl)piperidine-1-carbonyl)glycine]
 | 0.0001 to 10 | 0.0001 to 10 | CC(C)(C1CCN(C(=O)NC2CCS(=O)(=O)CC2)CC1)[C@H](O)c1cc(Cl)cc2cn[nH]c12 [Compound P-0674, (S)-4-(1-(5-chloro-1H-indazol-7-yl)-1-hydroxy-2-methylpropan-2-yl)-N-(1,1-dioxidotetrahydro-2H-thiopyran-4-yl)piperidine-1-carboxamide]
 | 0.0001 to 10 | 0.0001 to 10 | CC(C)(C1CCN(C(=O)NCC2(C#N)CC2)CC1)[C@H](O)c1cc(Cl)cc2cn[nH]c12 [Compound P-0675, (S)-4-(1-(5-chloro-1H-indazol-7-yl)-1-hydroxy-2-methylpropan-2-yl)-N-((1-cyanocyclopropyl)methyl)piperidine-1-carboxamide]
 | 0.0001 to 10 | 0.0001 to 10 | CN1CCN(Cc2ccc(NC(=O)N3CCC(C(C)(C)[C@H](O)c4cc(Cl)cc5cn[nH]c45)CC3)cc2)CC1 [Compound P-0676, (S)-4-(1-(5-chloro-1H-indazol-7-yl)-1-hydroxy-2-methylpropan-2-yl)-N-(4-((4-methylpiperazin-1-yl)methyl)phenyl) piperidine-1-carboxamide]
 | 0.0001 to 10 | 0.0001 to 10 | CC(C)(C1CCN(C(=O)NCCNS(C)(=O)=O)CC1)[C@H](O)c1cc(Cl)cc2cn[nH]c12 [Compound P-0677, (S)-4-(1-(5-chloro-1H-indazol-7-yl)-1-hydroxy-2-methylpropan-2-yl)-N-(2-(methylsulfonamido)ethyl)piperidine-1-carboxamide]
 | 0.0001 to 10 | 0.0001 to 10 | CC(C)(C1CCN(C(=O)NCCN2CCCS2(=O)=O)CC1)[C@H](O)c1cc(Cl)cc2cn[nH]c12 [Compound P-0678, (S)-4-(1-(5-chloro-1H-indazol-7-yl)-1-hydroxy-2-methylpropan-2-yl)-N-(2-(1,1-dioxidoisothiazolidin-2-yl)ethyl)piperidine-1-carboxamide]
 | 0.0001 to 10 | 0.0001 to 10 | CC(C)(C1CCN(C(=O)NCc2cccnc2)CC1)[C@H](O)c1cc(Cl)cc2cn[nH]c12 [Compound P-0679, (S)-4-(1-(5-chloro-1H-indazol-7-yl)-1-hydroxy-2-methylpropan-2-yl)-N-(pyridin-3-ylmethyl)piperidine-1-carboxamide]
 | 0.0001 to 10 | 0.0001 to 10 | CC(C)(C1CCN(C(=O)NCc2cnccn2)CC1)[C@H](O)c1cc(Cl)cc2cn[nH]c12 [Compound P-0680, (S)-4-(1-(5-chloro-1H-indazol-7-yl)-1-hydroxy-2-methylpropan-2-yl)-N-(pyrazin-2-ylmethyl)piperidine-1-carboxamide]
 | 0.0001 to 10 | 0.0001 to 10 | CC(C)(C1CCN(C(=O)NCc2ccnnc2)CC1)[C@H](O)c1cc(Cl)cc2cn[nH]c12 [Compound P-0681, (S)-4-(1-(5-chloro-1H-indazol-7-yl)-1-hydroxy-2-methylpropan-2-yl)-N-(pyridazin-4-ylmethyl)piperidine-1-carboxamide]
